Key:
[1] = determined by Baran and coworkers; no further studies conducted; cited from earlier work
[2] = Solubility in polar solvents; type: physicochemical; details: for solubility in polar solvents: acetonitrile, methanol; for solubility in methanol:water mixture: 9:1 methanol:water
Protocol: Previous bicyclobutane molecules (1a, 1b) were determined by Baran and coworkers to be bench stable so no further studies were conducted on their stability.

[3] = in solvent left on the bench, over 2 days
[4] = in diethyl ether; diphenyl disulfide, benzyl amine, diphenyl acetic acid, 1-butanethiol; GC-MS
Source text: To determine the stability and selectivity of bicyclobutane molecules endo-3, exo-3 were solubilized in diethyl ether and tested with a variety of functional groups (diphenyl disulfide, benzyl amine, diphenyl acetic acid, and 1-butanethiol) then analyzed on a GC-MS to confirm the continued presence of starting materials.

Structure (SMILES) | bench stability [1] | solubility in polar solvents [2] | solubility in methanol:water mixture [2] | stability in polar solvents by 1H-NMR [3] | reaction with functional groups (continued presence of starting materials) [4]
O=S(=O)(c1ccccc1)C12CC1C2 (stereo not shown) [1a, 1-(phenylsulfonyl)bicyclo[1.1.0]butane] | bench stable | not be completely soluble |  |  | 
Cc1ccc(S(=O)(=O)C23CC2C3)cc1 (stereo not shown) [1b, 1-tosylbicyclo[1.1.0]butane] | bench stable | not be completely soluble |  |  | 
OC[C@H]1[C@H]2C[C@@H]12 [endo-3, Endo-Bicyclo[1.1.-]butane-2-methanol] |  |  | soluble | no change | apparent only in the case with diphenyl acetic acid and 1-butane thiol
OC[C@@H]1[C@H]2C[C@@H]12 [exo-3, Exo-Bicyclo[1.1.-]butane-2-methanol] |  |  | soluble | no change | apparent only in the case with diphenyl acetic acid and 1-butane thiol

— patent publication US20200181192A1, “DISULFIDE BIOCONJUGATION” (The Regents of the University of California, priority 2017, published 2020)
